{"source": "patent US12678488B2", "about": "“Batch management method for improving farrowing rate or number of piglets born alive in swine” (priority 2024, dated 2026)", "tested_on": "Landrace x Large White reserve sows", "test": "B-Scan ultrasonic monitoring of follicles: ovulation time and ovarian cyst in gilts (Example 2)", "format": "in vivo, pigs", "excerpt": "Landrace x Large White reserve sows, about 230 days old, were randomly divided into a batch farrowing with FTAI and batch farrowing with FTAI combined with different doses of 1-[bis(4-cyanophenyl)methyl]-1,2,4-triazole groups, and during the experiment, the experimental sows in each group were fed regularly and gained free access to water according to the requirements of feeding management in the farm.\nReferring to the dosage of 1-[bis(4-cyanophenyl)methyl]-1,2,4-triazole in clinical medicine and using standard weight-dosage conversion, the recommended dosage of 1-[bis(4-cyanophenyl)methyl]-1,2,4-triazole for sows was 50-150 μg/kg·BW/day, orally for consecutive 5 days, as derived by conversion. In addition, the applicant previously studied uniparous cows, and in the ovulation induction scheme, the reference dosage of 1-[bis(4-cyanophenyl)methyl]-1,2,4-triazole was 60-200 μg/kg·BW, administered in a single dose; furthermore, by means of conversion in conjunction with the dosage for model animals (mice) previously in the laboratory, various dosages were designed. The treatment methods of hormones and drugs for sows in each group were as follows: • batch farrowing with FTAI: the sows were fed with an altrenogest oral solution at 20 mg/animal at the same time every day, for 18 days; PMSG at 1000 IU/animal was injected intramuscularly 42 h after the last feeding with altrenogest, GnRH at 100 μg/animal was injected intramuscularly 80 h after the injection of PMSG, a first timed insemination was performed 24 h after the injection of GnRH, and a second timed insemination was performed 16 h after the first insemination.\n(§1) Treatment group 1: the hormone treatment and mating schemes for gilts were the same as FTAI. The difference lay in that PMSG at 1000 IU/gilt was injected intramuscularly 42 h after the last feeding with altrenogest, and 1-[bis(4-cyanophenyl)methyl]-1,2,4-triazole at 12 μg/kg·BW/day was administered orally 8 h after the injection of PMSG, for 1 day.\nas §1, with “2:” for “1:”, “2 days.” for “1 day.”\nas §1, with “3:” for “1:”, “20” for “12”\nas §1, with “4:” for “1:”, “sows” for “gilts”, “1-[bis (4-cyanophenyl)methyl]-1,2,4-triazole” for “1-[bis(4-cyanophenyl)methyl]-1,2,4-triazole”, “20” for “12”, “2 days.” for “1 day.”\nas §1, with “5:” for “1:”, “IU/animal” for “IU/gilt”, “20” for “12”, “3 days.” for “1 day.”\nas §1, with “6:” for “1:”, “IU/animal” for “IU/gilt”, “20” for “12”, “5 days.” for “1 day.”\nTreatment group 7: the hormone treatment and mating schemes for gilts were the same as FTAI. […]", "key": {"[1]": {"settings": "80 and 160 μg/kg·BW/day for 5 consecutive days (treatment groups 9 and 10)"}, "[2]": {"settings": "Example 2 Treatment group 1: 12 μg/kg·BW/day orally, 1 day, gilts"}, "[3]": {"settings": "Example 2 Treatment group 2: 12 μg/kg·BW/day orally, 2 days, gilts"}, "[4]": {"settings": "Example 2 Treatment group 3: 20 μg/kg·BW/day orally, 1 day, gilts"}, "[5]": {"settings": "Example 2 Treatment group 4: 20 μg/kg·BW/day orally, 2 days, gilts"}, "[6]": {"settings": "Example 2 Treatment group 5: 20 μg/kg·BW/day orally, 3 days, gilts"}, "[7]": {"settings": "Example 2 Treatment group 6: 20 μg/kg·BW/day orally, 5 days, gilts"}, "[8]": {"settings": "Example 2 Treatment group 7: 40 μg/kg·BW/day orally, 1 day, gilts"}, "[9]": {"settings": "Example 2 Treatment group 8: 40 μg/kg·BW/day orally, 5 days, gilts"}, "[10]": {"settings": "Example 2 Treatment group 9: 80 μg/kg·BW/day orally, 5 days, gilts"}, "[11]": {"settings": "Example 2 Treatment group 10: 160 μg/kg·BW/day orally, 5 days, gilts"}, "[12]": {"settings": "gilts, with the increase of the dosage"}, "[13]": {"settings": "low-dose, batch farrowing with FTAI"}}, "note": "Entries after “also recorded” stand apart in the source; their conditions may differ. Marks after values point to notes of the source that are not given here.", "data": [{"smiles": "N#Cc1ccc(C(c2ccc(C#N)cc2)n2cncn2)cc1", "note": "[1-[bis(4-cyanophenyl)methyl]-1,2,4-triazole]", "values": [{"measurement": "ovarian cyst", "setting": "[1]", "value": "had a cyst problem"}, {"measurement": "ovulation for 10 days after stopping taking altrenogest", "setting": "[1]", "value": "did not ovulate"}, {"measurement": "Cyst ratio (%)", "setting": "[2]", "value": "0.00^b %"}, {"measurement": "Interval from stopping taking Altrenogest to ovulation (h)", "setting": "[2]", "value": "170.13 ± 3.87^a h"}, {"measurement": "Number of animals with ovarian cyst", "setting": "[2]", "value": 0}, {"measurement": "Number of animals with ovulation", "setting": "[2]", "value": 27}, {"measurement": "Cyst ratio (%)", "setting": "[3]", "value": "0.00^b %"}, {"measurement": "Interval from stopping taking Altrenogest to ovulation (h)", "setting": "[3]", "value": "172.15 ± 3.34^a h"}, {"measurement": "Number of animals with ovarian cyst", "setting": "[3]", "value": 0}, {"measurement": "Number of animals with ovulation", "setting": "[3]", "value": 23}, {"measurement": "Cyst ratio (%)", "setting": "[4]", "value": "0.00^b %"}, {"measurement": "Interval from stopping taking Altrenogest to ovulation (h)", "setting": "[4]", "value": "169.57 ± 2.19^a h"}, {"measurement": "Number of animals with ovarian cyst", "setting": "[4]", "value": 0}, {"measurement": "Number of animals with ovulation", "setting": "[4]", "value": 22}, {"measurement": "Cyst ratio (%)", "setting": "[5]", "value": "0.00^b %"}, {"measurement": "Interval from stopping taking Altrenogest to ovulation (h)", "setting": "[5]", "value": "194.25 ± 2.96^b h"}, {"measurement": "Number of animals with ovarian cyst", "setting": "[5]", "value": 0}, {"measurement": "Number of animals with ovulation", "setting": "[5]", "value": 21}, {"measurement": "Cyst ratio (%)", "setting": "[6]", "value": "11.53^c %"}, {"measurement": "Interval from stopping taking Altrenogest to ovulation (h)", "setting": "[6]", "value": "177.79 ± 4.75^a h"}, {"measurement": "Number of animals with ovarian cyst", "setting": "[6]", "value": 3}, {"measurement": "Number of animals with ovulation", "setting": "[6]", "value": 24}, {"measurement": "Cyst ratio (%)", "setting": "[7]", "value": "15.38^c %"}, {"measurement": "Interval from stopping taking Altrenogest to ovulation (h)", "setting": "[7]", "value": "187.67 ± 3.69^b h"}, {"measurement": "Number of animals with ovarian cyst", "setting": "[7]", "value": 4}, {"measurement": "Number of animals with ovulation", "setting": "[7]", "value": 20}, {"measurement": "Cyst ratio (%)", "setting": "[8]", "value": "11.53^c %"}, {"measurement": "Interval from stopping taking Altrenogest to ovulation (h)", "setting": "[8]", "value": "191.50 ± 5.74^b h"}, {"measurement": "Number of animals with ovarian cyst", "setting": "[8]", "value": 3}, {"measurement": "Number of animals with ovulation", "setting": "[8]", "value": 22}, {"measurement": "Cyst ratio (%)", "setting": "[9]", "value": "79.17^c %"}, {"measurement": "Interval from stopping taking Altrenogest to ovulation (h)", "setting": "[9]", "value": "210.00 ± 2.65^b h"}, {"measurement": "Number of animals with ovarian cyst", "setting": "[9]", "value": 19}, {"measurement": "Number of animals with ovulation", "setting": "[9]", "value": 4}, {"measurement": "Cyst ratio (%)", "setting": "[10]", "value": "100.00^c %"}, {"measurement": "Number of animals with ovarian cyst", "setting": "[10]", "value": 24}, {"measurement": "Number of animals with ovulation", "setting": "[10]", "value": 0}, {"measurement": "Cyst ratio (%)", "setting": "[11]", "value": "100.00^c %"}, {"measurement": "Number of animals with ovarian cyst", "setting": "[11]", "value": 24}, {"measurement": "Number of animals with ovulation", "setting": "[11]", "value": 0}, {"measurement": "ovulation time", "setting": "gilts, treatment groups 1, 2, 3, and 5, compared with batch farrowing with FTAI", "value": "no significant difference"}, {"measurement": "number of ovarian cysts", "setting": "[12]", "value": "increased"}, {"measurement": "time from stopping taking altrenogest to ovulation", "setting": "[12]", "value": "prolonged"}, {"measurement": "ovarian cysts", "setting": "high-dose", "value": "caused ovarian cysts"}, {"measurement": "ovulation in sows", "setting": "high-dose", "value": "inhibited"}, {"measurement": "ovarian cyst", "setting": "[13]", "value": "no ovarian cyst was caused"}, {"measurement": "ovulation time", "setting": "[13]", "value": "no significant change"}, {"measurement": "ovarian cyst, B-scan ultrasonic inspection", "setting": "sows, high-dose 80 μg/kg·BW (FIG. 5)", "value": "presented as cyst; also recorded: ovarian cyst is presented"}, {"measurement": "ovulation, B-scan ultrasonic inspection", "setting": "sows, high-dose 80 μg/kg·BW (FIG. 5), day 10 after stopping altrenogest", "value": "no ovulation was observed"}, {"measurement": "ovulation, B-scan ultrasonic inspection", "setting": "sows, low-dose 12 μg/kg·BW (FIG. 4)", "value": "ovulate normally"}]}]}
